From US8008488B2 (Abbott GmbH & Co. KG, priority 2003, dated 2011)
Counter-ions that a name gives are not always drawn.

Columns and labels:
[1] = biological target: T1, human dopamine D2L receptors (long isoform) (Homo sapiens, UniProt P14416); assay: Dopamine D2L receptor binding, displacement of [125I]-iodospiperone; conditions: *Ki(D2L)/Ki(D3), HEK-293 membranes, 0.01 nM [125I]-iodospiperone
T1 construct: expressed in transfected cells
Experimental: (§1) The substance to be tested was dissolved either in methanol/Chremophor® (BASF-AG) or in dimethyl sulfoxide and then diluted with water to the desired concentration.
(§2) Triplicate mixtures were carried out.
The incubation buffer contained 50 mM Tris, 120 mM NaCl, 5 mM KCl, 2 mM CaCl2, 2 mM MgCl2 and 0.1% bovine serum albumin. The buffer was adjusted to pH 7.4 with HCl.
(§3) Measurement and Evaluation:
(§4) After incubation at 25° C. for 60 minutes, the mixtures were filtered under vacuum through Whatman GF/B glass fiber filters using a cell harvester. The filters were transferred by a filter transfer system into scintillation vials. After addition of 4 ml of Ultima Gold® (Packard), the samples were shaken for one hour and then the radioactivity was calculated in a beta counter (Packard, Tricarb 2000 or 2200CA). The cp values were converted into dpm by means of a standard quench series with the aid of the instrument's own program.
(§5) Evaluation of the inhibition plots took place by iterative nonlinear regression analysis using the Statistical Analysis System (SAS) similar to the “LIGAND” program described by Munson and Rodbard.

[2] = biological target: T2, human dopamine D3 receptors (Homo sapiens, UniProt P35462); assay: Dopamine D3 receptor binding, displacement of [125I]-iodosulpride; conditions: membranes from HEK-293 cells with stably expressed human D3 receptors, 0.1 nM [125I]-iodosulpride
T2 construct: expressed in transfected cells
T2 sequence (P35462 whole entry): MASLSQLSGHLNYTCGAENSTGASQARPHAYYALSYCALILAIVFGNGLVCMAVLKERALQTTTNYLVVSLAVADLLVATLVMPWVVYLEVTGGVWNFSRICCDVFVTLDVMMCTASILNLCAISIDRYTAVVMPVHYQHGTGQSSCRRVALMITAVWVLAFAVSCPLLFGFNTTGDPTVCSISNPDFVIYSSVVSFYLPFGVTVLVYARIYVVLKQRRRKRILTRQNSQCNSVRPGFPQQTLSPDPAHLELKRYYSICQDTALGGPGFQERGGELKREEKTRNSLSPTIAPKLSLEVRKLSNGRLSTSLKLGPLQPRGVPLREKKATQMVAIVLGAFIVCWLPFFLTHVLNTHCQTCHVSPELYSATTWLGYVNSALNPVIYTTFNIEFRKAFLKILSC
Experimental: as §1, §2
The incubation buffer contained 50 mM Tris, 120 mM NaCl, 5 mM KCl, 2 mM CaCl2, 2 mM MgCl2 and 0.1% bovine serum albumin, 10 μM quinolone, 0.1% ascorbic acid (prepared fresh each day). The buffer was adjusted to pH 7.4 with HCl.
as §3, §4, §5

T1 sequence (P14416 whole entry, canonical isoform): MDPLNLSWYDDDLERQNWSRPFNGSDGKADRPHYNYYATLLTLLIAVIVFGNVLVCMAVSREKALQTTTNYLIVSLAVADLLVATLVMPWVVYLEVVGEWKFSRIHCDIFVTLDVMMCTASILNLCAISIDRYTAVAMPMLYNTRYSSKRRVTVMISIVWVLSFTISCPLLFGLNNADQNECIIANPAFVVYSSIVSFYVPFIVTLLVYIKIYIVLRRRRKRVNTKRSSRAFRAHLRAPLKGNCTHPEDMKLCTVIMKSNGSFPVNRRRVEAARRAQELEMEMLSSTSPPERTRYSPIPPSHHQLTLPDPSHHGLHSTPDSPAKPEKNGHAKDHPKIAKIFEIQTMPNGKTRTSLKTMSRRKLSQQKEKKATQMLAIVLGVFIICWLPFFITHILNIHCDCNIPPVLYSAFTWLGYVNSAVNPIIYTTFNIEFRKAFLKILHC

| Compound | Selectivity D3 vs. D2L* [1] | Ki [2] |
| --- | --- | --- |
| Cc1cn(CCCCN2CCN(c3cc(C(C)(C)C)nc(C(C)(C)C)n3)CC2)c(=O)nc1O [Example 9, 1-{4-[4-(2,6-ditert-Butylpyrimidin-4-yl)piperazin-1-yl]butyl}-4-hydroxy-5-methylpyrimidin-2(1H)-one] | 53 | 0.74 nM |
| CCCc1cc(N2CCN(CCCCn3cc(C)c(O)nc3=O)CC2)nc(C(C)(C)C)n1 [Example 10, 1-{4-[4-(2-tert-Butyl-6-propylpyrimidin-4-yl)piperazin-1-yl]butyl}-4-hydroxy-5-methylpyrimidin-2(1H)-one] | 97 | 1.75 nM |
| Cc1cn(CCCCN2CCN(c3ccc(F)cc3F)CC2)c(=O)[nH]c1=O [Example 131, 1-{4-[4-(2,4-Difluorophenyl)piperazin-1-yl]butyl}-5-methyl-1H-pyrimidine-2,4-dione] | 30 | 25.7 nM |
| Cc1cn(CCCCN2CCN(c3cccc(Cl)c3Cl)CC2)c(=O)[nH]c1=O [Example 135, 1-{4-[4-(2,3-Dichlorophenyl)piperazin-1-yl]butyl}-5-methyl-1H-pyrimidine-2,4-dione] | 87 | 0.27 nM |
| CCCc1cc(N2CCN(CCCCn3ccc(-c4cccs4)nc3=O)CC2)nc(C(C)(C)C)n1 [Example 87, 1-{4-[4-(2-tert-Butyl-6-propylpyrimidin-4-yl)piperazin-1-yl]butyl}-4-thiophen-2-yl-1H-pyrimidin-2-one] | 31 | 0.97 nM |
| Cc1cn(CCCCN2CCN(c3cc(C(F)(F)F)nc(C(C)(C)C)n3)CC2)c(=O)nc1NCc1ccccc1 [Example 11, 4-(Benzylamino)-1-(4-{4-[2-tert-butyl-6-(trifluoromethyl)pyrimidin-4-yl]piperazin-1-yl}butyl)-5-methylpyrimidin-2(1H)-one] | 65 | 3.14 nM |
| Cc1cn(CCCCN2CCN(c3ccccc3Cl)CC2)c(=O)[nH]c1=O [Example 127, 1-{4-[4-(2-Chlorophenyl)piperazin-1-yl]butyl}-5-methyl-1H-pyrimidine-2,4-dione] | 45 | 1.5 nM |
| CCCc1cc(N2CCN(C/C=C(\C)Cn3cc(C)c(=O)[nH]c3=O)CC2)nc(C(C)(C)C)n1 [Example 65] | 62 | 3.31 nM |
| CC(C)(C)c1ccn(CCCCN2CCN(c3cc(C(F)(F)F)nc(C(C)(C)C)n3)CC2)c(=O)n1 [Example 14, 4-tert-Butyl-1-(4-{4-[2-tert-butyl-6-(trifluoromethyl)pyrimidin-4-yl]piperazin-1-yl}butyl)pyrimidin-2(1H)-one] | 82 | 2.62 nM |
| CC(=O)O.CC(C)(C)c1nc(N2CCN(CCCCn3ccc(C4CC4)nc3=O)CC2)cc(C(F)(F)F)n1 [Example 94, 4-(2-tert-Butyl-6-trifluoromethylpyrimidin-4-yl)-1-[4-(4-cyclopropyl-2-oxo-2H-pyrimidin-1-yl)butyl]piperazin-1-ium acetate] | 36 | 4.28 nM |
| Cc1ccccc1N1CCN(CCCCn2cc(C)c(=O)[nH]c2=O)CC1 [Example 111, 5-Methyl-1-[4-(4-(o-tolyl)piperazin-1-yl)butyl]-1H-pyrimidine-2,4-dione] | 30 | 6.8 nM |
| CC(C)(C)c1nc(N2CCN(CCCCn3ccc(-c4ccc(F)cc4)nc3=O)CC2)cc(C(F)(F)F)n1.Cl [Example 45, 4-(2-tert-Butyl-6-trifluoromethylpyrimidin-4-yl)-1-{4-[4-(4-fluorophenyl)-2-oxo-2H-pyrimidin-1-yl]butyl}piperazin-1-ium chloride] | 37 | 4.99 nM |
| CCCc1cc(N2CCN(C(C)CCCn3cc(C)c(=O)[nH]c3=O)CC2)nc(C(C)(C)C)n1 (single isomer, unassigned; (-)) [Example 76, (−)-1-{4-[4-(2-tert-Butyl-6-propylpyrimidin-4-yl)piperazin-1-yl]pentyl}-5-methyl-1H-pyrimidine-2,4-dione] | 103 | 3.03 nM |
| CC(C)(C)c1nc(N2CCN(CCCCn3cc(Cl)c(=O)[nH]c3=O)CC2)cc(C(F)(F)F)n1 [Example 52, 1-{4-[4-(2-tert-Butyl-6-trifluoromethylpyrimidin-4-yl)piperazin-1-yl]butyl}-5-chloro-1H-pyrimidine-2,4-dione] | 97 | 2.28 nM |
| CC(C)(C)c1nc(N2CCN(CCCCn3ccc(-c4ccccc4F)nc3=O)CC2)cc(C(F)(F)F)n1 [Example 67, 4-(2-tert-Butyl-6-trifluoromethylpyrimidin-4-yl)-1-{4-[4-(2-fluorophenyl)-2-oxo-2H-pyrimidin-1-yl]butyl}piperazin-1-ium fumarate] | 39 | 10.1 nM |
| Cc1ccccc1-c1ccn(CCCCN2CCN(c3cc(C(F)(F)F)nc(C(C)(C)C)n3)CC2)c(=O)n1 [Example 60, 4-(2-tert-Butyl-6-trifluoromethylpyrimidin-4-yl)-1-[4-(2-oxo-4-(o-tolyl)-2H-pyrimidin-1-yl)butyl]piperazin-1-ium fumarate] | 91 | 4.33 nM |
| Cc1ccn(CCCCN2CCN(c3cc(C(C)C)nc(C(C)(C)C)n3)CC2)c(=O)n1.Cl [Example 39, 4-(2-tert-Butyl-6-isopropylpyrimidin-4-yl)-1-[4-(4-methyl-2-oxopyrimidin-1 (2H)-yl)butyl]piperazin-1-ium chloride] | 66 | 6.09 nM |
| Cc1cn(CCCCN2CCN(c3cc(Cl)cc(Cl)c3)CC2)c(=O)[nH]c1=O [Example 119, 1-{4-[4-(3,5-Dichlorophenyl)piperazin-1-yl]butyl}-5-methyl-1H-pyrimidine-2,4-dione] | 65 | 0.46 nM |
| Cc1cn(CCCCN2CCN(c3cc(C4CC4)nc(C(C)(C)C)n3)CC2)c(=O)nc1O [Example 17, 1-{4-[4-(2-tert-Butyl-6-cyclopropylpyrimidin-4-yl)piperazin-1-yl]butyl}-4-hydroxy-5-methylpyrimidin-2(1H)-one] | 134 | 0.71 nM |
| Cc1cn(CCCCN2CCN(c3cc(C(C)C)nc(C(C)(C)C)n3)CC2)c(=O)[nH]c1=O.Cl [Example 40, 4-(2-tert-Butyl-6-isopropylpyrimidin-4-yl)-1-[4-(5-methyl-2,4-dioxo-3,4-dihydro-2H-pyrimidin-1-yl)-butyl]piperazin-1-ium chloride] | 67 | 2.12 nM |
| CCCc1cc(N2CCN(CCCCn3ccc(-c4cccc(C)c4)nc3=O)CC2)nc(C(C)(C)C)n1 [Example 59, 1-{4-[4-(2-tert-Butyl-6-propylpyrimidin-4-yl)piperazin-1-yl]butyl}-4-(m-tolyl)-1H-pyrimidin-2-one] | 44 | 1.8 nM |
| CCCc1cc(N2CCN(CCCCn3ccc(-c4ccsc4)nc3=O)CC2)nc(C(C)(C)C)n1 [Example 93, 1-{4-[4-(2-tert-Butyl-6-propylpyrimidin-4-yl)piperazin-1-yl]butyl}-4-thiophen-3-yl-1H-pyrimidin-2-one] | 40 | 0.65 nM |
| Cc1cn(CCCCN2CCN(c3cc(C(F)(F)F)nc(C(C)(C)C)n3)CC2)c(=O)nc1O.Cl [Example 5, 1-[2-tert-Butyl-6-(trifluoromethyl)pyrimidin-4-yl]-4-[4-(4-hydroxy-5-methyl-2-oxopyrimidin-1 (2H)-yl)butyl]piperazin-4-ium chloride] | 246 | 1.3 nM |
| 1-{4-[4-(2,3-Dichlorophenyl)piperazin-1-yl]butyl}-5-methyl-1H-pyrimidine-2,4-dione [Example 82] | 54 | 0.31 nM |
| CC(C)(C)c1nc(N2CCN(CCCCn3ccc(C(F)(F)F)nc3=O)CC2)cc(C(F)(F)F)n1.Cl [Example 15, 1-[2-tert-Butyl-6-(trifluoromethyl)pyrimidin-4-yl]-4-{4-[2-oxo-4-(trifluoromethyl)pyrimidin-1 (2H)-yl]butyl}piperazin-4-ium chloride] | 64 | 14.5 nM |
| Cc1ccc(-c2ccn(CCCCN3CCN(c4cc(C(F)(F)F)nc(C(C)(C)C)n4)CC3)c(=O)n2)cc1 [Example 66, 4-(2-tert-Butyl-6-trifluoromethylpyrimidin-4-yl)-1-[4-(2-oxo-4-(p-tolyl)-2H-pyrimidin-1-yl)butyl]piperazin-1-ium fumarate] | 37 | 13.5 nM |
| CCCc1cc(N2CCN(CCCCn3ccc(-c4ccc(C)cc4)nc3=O)CC2)nc(C(C)(C)C)n1 [Example 75, 4-(2-tert-Butyl-6-propylpyrimidin-4-yl)-1-[4-(2-oxo-4-(p-tolyl)-2H-pyrimidin-1-yl)butyl]piperazine 1-fumarate] | 80 | 2.3 nM |
| Cc1cn(CCCC(C)N2CCN(c3cc(C(F)(F)F)nc(C(C)(C)C)n3)CC2)c(=O)[nH]c1=O (centres unmarked) [Example 54, 1-{4-[4-(2-tert-Butyl-6-trifluoromethylpyrimidin-4-yl)piperazin-1-yl]pentyl}-5-methyl-1H-pyrimidine-2,4-dione] | 52 | 9.25 nM |
